Source: US6613762B2, “Gambogic acid, analogs and derivatives as activators of caspases and inducers of apoptosis” (Cytovia, Inc., priority 1999, dated 2003)

Tests used:
PC-3 cells = assay: Inhibition of cell proliferation (GI50) and cell death (LC50), PC-3; type: cell-based; conditions: PC-3, 48 h; read-out: GI50 (dose for 50% inhibition of cell proliferation)
Procedure: (§1) T47D, ZR-75-1, PC-3, human prostate cancer cell line DU-145, human non-small cell lung cancer cell line A-549, human small cell lung cancer cell line SHP-77, HL-60 and MRC-5 cells were grown and harvested as in Example 90. […] The samples were mixed by agitation and incubated at 37° C. for 2-4 h in a 5% CO2-95% humidity incubator. […] This determines the possible background absorbance of the test compounds. No absorbance for gambogic acid or its analogs or derivatives was found at 490 nm. After the 2-4 h incubation, the samples were read for absorbance as above (ATest).
(§2) Baseline for GI50 (dose for 50% inhibition of cell proliferation) and LC50 (dose for 50% cell death) of initial cell numbers was determined by adding an aliquot of 90 μl of cells or 90 μl of media, respectively, to wells of a 96-well microtiter plate containing 10 μl of a 10% DMSO in RPMI-1640 media solution. […] The samples were mixed by agitation and incubated at 37° C. for 2-4 h in a 5% CO2-95% humidity incubator. Absorbance was read as above, (AT=0) defining absorbance for initial cell number used as baseline in GI50 determinations and (Amin) defining absorbance for media alone used as baseline in LC50 determinations.
(§3) GI50 (dose for 50% inhibition of cell proliferation)
(§4) LC50 (dose for 50% cell death)
(§5) 50=100×[(ATest−Amin)/(AT=0−Amin)]

[1] = tested on: human non-small cell lung cancer cell line A-549; assay: Inhibition of cell proliferation (GI50) and cell death (LC50), A-549; type: cell-based; conditions: A-549, 48 h; read-out: GI50 (dose for 50% inhibition of cell proliferation)
Procedure: as §1, §2, §3, §4, §5

[2] = tested on: human small cell lung cancer cell line SHP-77; assay: Inhibition of cell proliferation (GI50) and cell death (LC50), SHP-77; type: cell-based; conditions: SHP-77, 48 h
Procedure: as §1, §2, §3, §4, §5

MRC-5 cells = assay: Inhibition of cell proliferation (GI50) and cell death (LC50), MRC-5; type: cell-based; conditions: MRC-5, 48 h
Procedure: as §1, §2, §3, §4, §5

T47D breast cancer cells = assay: Nuclear fragmentation in T47D breast cancer cells (Syto16 stain); type: cell-based, human; conditions: 10 μM, 24 h (FIG. 2B)
Procedure: T47D cells were grown and plated as described in Example 90. The cells were treated with 10 μM of gambogic acid and the plate was incubated for up to 24 h at 37° C. in a 5% CO2-95% humidity incubator. At 24 h, the cells were incubated with a live cell nucleic acid stain, Syto16 (Molecular Probes) which stains DNA. After 2 washes with PBS, cells were examined under a fluorescence microscope. […] Nuclear fragmentation is a clear indicator of cellular apoptosis.

Jurkat T leukemia cells = assay: Apoptotic morphology in Jurkat cells; type: cell-based
Procedure: Jurkat T leukemia cells were grown in RPMI 1640 media (Life Technologies, Inc.)+10% FCS (Sigma Chemical Company) in a 5% CO2-95% humidity incubator at 37° C., and maintained at a cell density between 4 and 8×10^5 cells/ml. Cells were harvested at 200× g and resuspended at 1-2×10^6 cells/ml into RPMI 1640 media+10% FCS, and 3 ml of the cells was dispensed in each of three wells of a 6-well plate. One of the wells was treated with 10 μM caspase inhibitor cbz-Val-Asp-fink (Cytovia, Inc.; WO99/18781) and the plate was incubated at 37° C. in a 5% CO2-95% humidity incubator for 1 h prior to addition of gambogic acid. The wells with and without the caspase inhibitor were treated with 10 μM gambogic acid. The third well was treated with solvent (control cells). The plate was incubated at 37° C. in a 5% CO2-95% humidity incubator.
At 30 min. after addition of gambogic acid an aliquot of cells from each well was taken into the capillary slides and observed under a phase-contrast microscope.

[3] = tested on: poly(ADP)ribose polymerase (PARP) cleavage, Jurkat cells; assay: PARP cleavage western blot, Jurkat cells; type: cell-based, human; conditions: 2.5 μM, 2 h (FIG. 5A)
Procedure: (§6) Cleavage of the enzyme poly(ADP)ribose polymerase (PARP) by caspase-3 and related proteases is considered to be one of the molecular hallmarks of caspase-mediated apoptosis. Therefore, the ability of gambogic acid to induce PARP cleavage in four different human tumor cell lines (Jurkat cells, HL-60 cells, T47D cells and PC3 cells) was determined.
(§7) Cells were cultured in complete growth medium containing 10% FBS and treated with gambogic acid at concentrations of 2.5 μM or 5 μM for 2 to 4 h. Control cultures were treated with a drug vehicle (DMSO), or the well-characterized apoptosis inducer, staurosporine. At the end of the apoptosis induction period, the cells were harvested, washed once with PBS, quick-frozen on dry ice, and stored at −80° C. The cells were then lysed in a standard immunoblotting lysis buffer and samples of the lysates were electrophoresed on 4% to 20% gradient polyacrylamide gels. The proteins in the gels were then transferred to PVDF membranes and probed with a commercially-available rabbit polyclonal antibody to PARP.

[4] = tested on: poly(ADP)ribose polymerase (PARP) cleavage, HL-60 cells; assay: PARP cleavage western blot, HL-60 cells; type: cell-based, human; conditions: 2.5 μM, 2 h (FIG. 5B)
Procedure: as §6, §7

[5] = tested on: poly(ADP)ribose polymerase (PARP) cleavage, T47D cells; assay: PARP cleavage western blot, T47D cells; type: cell-based, human
Procedure: as §6, §7

HEL cells = conditions: reported by Asano et al., Phytochemistry 41:815-820 (1996); cited from earlier work
KB cell line = conditions: reported by Lin et al., Magn. Reson. Chem. 31:340-347 (1993); cited from earlier work
[6] = read-out: GI50 (dose for 50% inhibition of cell proliferation)
[7] = read-out: LC50 (dose for 50% cell death)

CC(C)=CCC[C@]1(C)C=Cc2c(O)c3c(c(CC=C(C)C)c2O1)O[C@]12C(=C[C@@H]4C[C@H]1C(C)(C)O[C@@]2(C/C=C(/C)C(=O)O)C4=O)C3=O [Example 1, Gambogic Acid]
GI50 (PC-3 cells): 500 nM | GI50 [1]: 800 nM | GI50 [2, 6]: 500 nM | CC50 [2, 7]: 500 nM | GI50 (MRC-5 cells; [6]): 400 nM | CC50 (MRC-5 cells; [7]): 500 nM | Nuclear fragmentation (Syto16 nuclear staining) (T47D breast cancer cells): condensed and fragmented nuclei in a large population of the cells | Cell morphology of Jurkat cells in presence of caspase inhibitor (Jurkat T leukemia cells; 10 μM gambogic acid, 30 min, with 10 μM caspase inhibitor cbz-Val-Asp-fink (FIG. 3C)): prevented the morphological changes | Cell morphology of Jurkat cells (Jurkat T leukemia cells; 10 μM, 30 min (FIG. 3B)): blebbing and cellular fragmentation | PARP cleavage [3]: almost complete PARP cleavage | PARP cleavage [4]: almost complete PARP cleavage | PARP cleavage ([5]; 2.5 μM and 5 μM, 4 h (FIG. 5C)): almost complete PARP cleavage | PARP cleavage ([5]; 2.5 μM, 2 h (FIG. 5C)): moderate induction of PARP cleavage | PARP cleavage ([5]; 5 μM, 2 h (FIG. 5C)): almost complete PARP cleavage | Cytotoxicity to HEL cells (HEL cells): cytotoxic | Cytotoxicity against KB cell line (KB cell line): cytotoxic
